From patent US20020031795A1, “Nitrocoumarins for detecting all micro-organisms” (priority 1998, published 2002)

What was measured:
Test in all cases: Fluorescence after 24 hours, serial dilutions in Trypticase Soy broth
Assay type in all cases: cell-based
[1] = test system: Serratia marcescens (NCTC 10211)
Procedure: (§1) This experiment was performed to test 7-nitrocoumarin-3-carboxylic acid on sixteen (16) different types of microorganism, including one yeast species.
(§2) A mass of 10 mg of the indicator was dissolved in 4 ml of hot, distilled water and this solution was then added to 96 ml of Trypticase Soy broth. The resultant mixture was sterile-filtered.
(§3) All the microorganisms were grown for 24 hours in Trypticase Soy broth at 35° C. Each culture was then diluted 1,000-fold in Trypticase Soy broth and then serial 10-fold dilutions were made in more Trypticase Soy broth until the test aliquot contained no more microbial cells.
(§4) The resultant dilutions ranged from 10^−3 to 10^−13.
(§5) Fifty microliters of each dilution plus 50 μl of Trypticase Soy broth were added to wells of a microtiter plate with or without 7-nitrocoumarin-3-carboxylic acid.
(§6) The plates were read (T zero) and then incubated at 35° C. before being read again after 24 hours. Two different readings were made at each time point:
(§7) of the fluorescence (excitation at 365 nm and emission at 440 nm), using a Biolite F1 2001 fluorometer (Labtech International Limited), for wells containing 7-nitrocoumarin-3-carboxylic acid.

[2] = test system: Pseudomonas putida (ATCC 12633)
Procedure: as §1, §2, §3, §4, §5, §6, §7

[3] = test system: Pseudomonas fluorescens (ATCC 13525)
Procedure: as §1, §2, §3, §4, §5, §6, §7

[4] = test system: Shigella sonnei (NCTC 8586)
Procedure: as §1, §2, §3, §4, §5, §6, §7

[5] = test system: Acinetobacter baumanii (ATCC 19606)
Procedure: as §1, §2, §3, §4, §5, §6, §7

[6] = test system: Shewanella putrefaciens (ATCC 8071)
Procedure: as §1, §2, §3, §4, §5, §6, §7

[7] = test system: Moraxella osloensis (ATCC 19976)
Procedure: as §1, §2, §3, §4, §5, §6, §7

[8] = test system: Burkholderia cepacia (ATCC 25416)
Procedure: as §1, §2, §3, §4, §5, §6, §7

[9] = test system: Acinetobacter calcoaceticus (ATCC 7844)
Procedure: as §1, §2, §3, §4, §5, §6, §7

[10] = test system: Streptococcus mitis (NCTC 12261)
Procedure: as §1, §2, §3, §4, §5, §6, §7

[11] = test system: Staphylococcus aureus (NCTC 6571)
Procedure: as §1, §2, §3, §4, §5, §6, §7

`O=C(O)c1cc2ccc([N+](=O)[O-])cc2oc1=O` [7-nitrocoumarin-3-carboxylic acid] gave a Fluorescence reading ([1]; dilution 10^−3) of 47178, a Fluorescence reading ([1]; dilution 10^−4) of 49470 and a Fluorescence reading ([1]; dilution 10^−5) of 45804. The Fluorescence reading ([1]; dilution 10^−6) was 45454, the Fluorescence reading ([1]; dilution 10^−7) was 45637 and the Fluorescence reading ([1]; dilution 10^−8) was 43088. For the same compound, the Fluorescence reading ([1]; dilution 10^−9) was 48320, the Fluorescence reading ([1]; dilution 10^−10) was 1678 and the Fluorescence reading ([1]; dilution 10^−11) was 1641. It also gave a Fluorescence reading ([1]; dilution 10^−12) of 1636, a Fluorescence reading ([1]; dilution 10^−13) of 1621 and a Fluorescence reading ([2]; dilution 10^−3) of 12589. It also gave a Fluorescence reading ([2]; dilution 10^−4) of 9810, a Fluorescence reading ([2]; dilution 10^−5) of 7670 and a Fluorescence reading ([2]; dilution 10^−6) of 6806. It also gave a Fluorescence reading ([2]; dilution 10^−7) of 5714, a Fluorescence reading ([2]; dilution 10^−8) of 1715 and a Fluorescence reading ([2]; dilution 10^−9) of 1664. The Fluorescence reading ([2]; dilution 10^−10) was 1660, the Fluorescence reading ([2]; dilution 10^−11) was 1651 and the Fluorescence reading ([2]; dilution 10^−12) was 1660. For the same compound, the Fluorescence reading ([2]; dilution 10^−13) was 1657, the Fluorescence reading ([3]; dilution 10^−3) was 8985 and the Fluorescence reading ([3]; dilution 10^−4) was 1774. The Fluorescence reading ([3]; dilution 10^−5) was 1657, the Fluorescence reading ([3]; dilution 10^−6) was 1625 and the Fluorescence reading ([3]; dilution 10^−7) was 1716. For the same compound, the Fluorescence reading ([3]; dilution 10^−8) was 1690, the Fluorescence reading ([3]; dilution 10^−9) was 1736 and the Fluorescence reading ([3]; dilution 10^−10) was 1666. The Fluorescence reading ([3]; dilution 10^−11) was 1691, the Fluorescence reading ([3]; dilution 10^−12) was 1666 and the Fluorescence reading ([3]; dilution 10^−13) was 1624. It also gave a Fluorescence reading ([4]; dilution 10^−3) of 51755, a Fluorescence reading ([4]; dilution 10^−4) of 50254 and a Fluorescence reading ([4]; dilution 10^−5) of 50166. For the same compound, the Fluorescence reading ([4]; dilution 10^−6) was 50278, the Fluorescence reading ([4]; dilution 10^−7) was 49882 and the Fluorescence reading ([4]; dilution 10^−8) was 47370. The Fluorescence reading ([4]; dilution 10^−9) was 1816, the Fluorescence reading ([4]; dilution 10^−10) was 1990 and the Fluorescence reading ([4]; dilution 10^−11) was 1960. For the same compound, the Fluorescence reading ([4]; dilution 10^−12) was 1956, the Fluorescence reading ([4]; dilution 10^−13) was 1911 and the Fluorescence reading ([5]; dilution 10^−3) was 27016. It also gave a Fluorescence reading ([5]; dilution 10^−4) of 11695, a Fluorescence reading ([5]; dilution 10^−5) of 12525 and a Fluorescence reading ([5]; dilution 10^−6) of 8912. For the same compound, the Fluorescence reading ([5]; dilution 10^−7) was 6953, the Fluorescence reading ([5]; dilution 10^−8) was 1651 and the Fluorescence reading ([5]; dilution 10^−9) was 1705. The Fluorescence reading ([5]; dilution 10^−10) was 1718, the Fluorescence reading ([5]; dilution 10^−11) was 1678 and the Fluorescence reading ([5]; dilution 10^−12) was 1687. For the same compound, the Fluorescence reading ([5]; dilution 10^−13) was 1660, the Fluorescence reading ([6]; dilution 10^−3) was 40277 and the Fluorescence reading ([6]; dilution 10^−4) was 37262. For the same compound, the Fluorescence reading ([6]; dilution 10^−5) was 34890, the Fluorescence reading ([6]; dilution 10^−6) was 32034 and the Fluorescence reading ([6]; dilution 10^−7) was 31793. It also gave a Fluorescence reading ([6]; dilution 10^−8) of 1911, a Fluorescence reading ([6]; dilution 10^−9) of 1902 and a Fluorescence reading ([6]; dilution 10^−10) of 1972. The Fluorescence reading ([6]; dilution 10^−11) was 1917, the Fluorescence reading ([6]; dilution 10^−12) was 1935 and the Fluorescence reading ([6]; dilution 10^−13) was 1990. The Fluorescence reading ([7]; dilution 10^−3) was 11426, the Fluorescence reading ([7]; dilution 10^−4) was 9949 and the Fluorescence reading ([7]; dilution 10^−5) was 7700. The Fluorescence reading ([7]; dilution 10^−6) was 5875, the Fluorescence reading ([7]; dilution 10^−7) was 1925 and the Fluorescence reading ([7]; dilution 10^−8) was 1941. The Fluorescence reading ([7]; dilution 10^−9) was 1977, the Fluorescence reading ([7]; dilution 10^−10) was 2039 and the Fluorescence reading ([7]; dilution 10^−11) was 1938. It also gave a Fluorescence reading ([7]; dilution 10^−12) of 1907, a Fluorescence reading ([7]; dilution 10^−13) of 1945 and a Fluorescence reading ([8]; dilution 10^−3) of 16978. The Fluorescence reading ([8]; dilution 10^−4) was 16719, the Fluorescence reading ([8]; dilution 10^−5) was 16808 and the Fluorescence reading ([8]; dilution 10^−6) was 15800. For the same compound, the Fluorescence reading ([8]; dilution 10^−7) was 11973, the Fluorescence reading ([8]; dilution 10^−8) was 1969 and the Fluorescence reading ([8]; dilution 10^−9) was 1996. For the same compound, the Fluorescence reading ([8]; dilution 10^−10) was 1950, the Fluorescence reading ([8]; dilution 10^−11) was 1925 and the Fluorescence reading ([8]; dilution 10^−12) was 1965. It also gave a Fluorescence reading ([8]; dilution 10^−13) of 1914, a Fluorescence reading ([9]; dilution 10^−3) of 29657 and a Fluorescence reading ([9]; dilution 10^−4) of 18288. The Fluorescence reading ([9]; dilution 10^−5) was 12311, the Fluorescence reading ([9]; dilution 10^−6) was 12223 and the Fluorescence reading ([9]; dilution 10^−7) was 11635. It also gave a Fluorescence reading ([9]; dilution 10^−8) of 14858, a Fluorescence reading ([9]; dilution 10^−9) of 13353 and a Fluorescence reading ([9]; dilution 10^−10) of 10862. For the same compound, the Fluorescence reading ([9]; dilution 10^−11) was 1712, the Fluorescence reading ([9]; dilution 10^−12) was 1654 and the Fluorescence reading ([9]; dilution 10^−13) was 1699. The Fluorescence reading ([10]; dilution 10^−3) was 20988, the Fluorescence reading ([10]; dilution 10^−4) was 21541 and the Fluorescence reading ([10]; dilution 10^−5) was 19899. The Fluorescence reading ([10]; dilution 10^−6) was 19619, the Fluorescence reading ([10]; dilution 10^−7) was 17228 and the Fluorescence reading ([10]; dilution 10^−8) was 1682. For the same compound, the Fluorescence reading ([10]; dilution 10^−9) was 1676, the Fluorescence reading ([10]; dilution 10^−10) was 1691 and the Fluorescence reading ([10]; dilution 10^−11) was 1636. The Fluorescence reading ([10]; dilution 10^−12) was 1644, the Fluorescence reading ([10]; dilution 10^−13) was 1669 and the Fluorescence reading ([11]; dilution 10^−3) was 46607. The Fluorescence reading ([11]; dilution 10^−4) was 45207, the Fluorescence reading ([11]; dilution 10^−5) was 44544 and the Fluorescence reading ([11]; dilution 10^−6) was 43559. For the same compound, the Fluorescence reading ([11]; dilution 10^−7) was 41437, the Fluorescence reading ([11]; dilution 10^−8) was 1678 and the Fluorescence reading ([11]; dilution 10^−9) was 1666. The Fluorescence reading ([11]; dilution 10^−10) was 1666, the Fluorescence reading ([11]; dilution 10^−11) was 1620 and the Fluorescence reading ([11]; dilution 10^−12) was 1706. For the same compound, the Fluorescence reading ([11]; dilution 10^−13) was 1669.
